pEC50: −log10 of the molar value.
What was measured:
[1] = target: T1, GR (h) (agonist radioligand) (Homo sapiens, UniProt P04150); assay: CEREP Diversity Panel; type: binding
T1 construct: purchased CEREP (Eurofins Cerep)
Procedure: (§1) […]. MAO-A inhibition at 10 μM was 37%, in line with internal data.

[2] = target: T2, IP (PGI2) (h) (agonist radioligand) (Homo sapiens, UniProt P43119); assay: CEREP Diversity Panel; type: binding
T2 construct: purchased CEREP (Eurofins Cerep)
Procedure: as §1

[3] = target: T3, A2A (h) (agonist radioligand) (Homo sapiens, UniProt P29274); assay: CEREP Diversity Panel; type: binding
T3 construct: purchased CEREP (Eurofins Cerep)
Procedure: as §1

[4] = target: T4, CysLT1 (LTD4) (h) (agonist radioligand) (Homo sapiens, UniProt Q9Y271); assay: CEREP Diversity Panel; type: binding
T4 construct: purchased CEREP (Eurofins Cerep)
Procedure: as §1

[5] = target: T5, V1a (h) (agonist radioligand) (Homo sapiens, UniProt P37288); assay: CEREP Diversity Panel; type: binding
T5 construct: purchased CEREP (Eurofins Cerep)
Procedure: as §1

[6] = target: T6, D2S (h) (antagonist radioligand) (Homo sapiens, UniProt P14416); assay: CEREP Diversity Panel; type: binding
T6 construct: purchased CEREP (Eurofins Cerep)
Procedure: as §1

[7] = target: T7, 5-HT transporter (h) (antagonist radioligand) (Homo sapiens, UniProt P31645); assay: CEREP Diversity Panel; type: binding
T7 construct: purchased CEREP (Eurofins Cerep)
Procedure: as §1

[8] = target: T8, ETA (h) (agonist radioligand) (Homo sapiens, UniProt P25101); assay: CEREP Diversity Panel; type: binding
T8 construct: purchased CEREP (Eurofins Cerep)
Procedure: as §1

[9] = target: T9, H2 (h) (antagonist radioligand) (Homo sapiens, UniProt P25021); assay: CEREP Diversity Panel; type: binding
T9 construct: purchased CEREP (Eurofins Cerep)
Procedure: as §1

[10] = target: T10, beta 1 (h) (agonist radioligand) (Homo sapiens, UniProt P08588); assay: CEREP Diversity Panel; type: binding
T10 construct: purchased CEREP (Eurofins Cerep)
Procedure: as §1

[11] = target: T11, PAR1 (h) (agonist radioligand) (Homo sapiens, UniProt P25116); assay: CEREP Diversity Panel; type: binding
T11 construct: purchased CEREP (Eurofins Cerep)
Procedure: as §1

[12] = target: T12, H3 (h) (agonist radioligand) (Homo sapiens, UniProt Q9Y5N1); assay: CEREP Diversity Panel; type: binding
T12 construct: purchased CEREP (Eurofins Cerep)
Procedure: as §1

[13] = target: T13, D4.4 (h) (antagonist radioligand) (Homo sapiens, UniProt P21917); assay: CEREP Diversity Panel; type: binding
T13 construct: purchased CEREP (Eurofins Cerep)
Procedure: as §1

[14] = target: T14, AT2 (h) (agonist radioligand) (Homo sapiens, UniProt P50052); assay: CEREP Diversity Panel; type: binding
T14 construct: purchased CEREP (Eurofins Cerep)
Procedure: as §1

[15] = target: T15, NK3 (h) (antagonist radioligand) (Homo sapiens, UniProt P29371); assay: CEREP Diversity Panel; type: binding
T15 construct: purchased CEREP (Eurofins Cerep)
Procedure: as §1

[16] = target: T16, PPARg (h) (agonist radioligand) (Homo sapiens, UniProt P37231); assay: CEREP Diversity Panel; type: binding
T16 construct: purchased CEREP (Eurofins Cerep)
Procedure: as §1

[17] = target: T17, NK1 (h) (agonist radioligand) (Homo sapiens, UniProt P25103); assay: CEREP Diversity Panel; type: binding
T17 construct: purchased CEREP (Eurofins Cerep)
Procedure: as §1

[18] = target: T18, CCK2 (CCKB) (h) (agonist radioligand) (Homo sapiens, UniProt P32239); assay: CEREP Diversity Panel; type: binding
T18 construct: purchased CEREP (Eurofins Cerep)
Procedure: as §1

[19] = target: T19, V2 (h) (agonist radioligand) (Homo sapiens, UniProt P30518); assay: CEREP Diversity Panel; type: binding
T19 construct: purchased CEREP (Eurofins Cerep)
Procedure: as §1

[20] = target: T20, B2 (h) (agonist radioligand) (Homo sapiens, UniProt P30411); assay: CEREP Diversity Panel; type: binding
T20 construct: purchased CEREP (Eurofins Cerep)
Procedure: as §1

[21] = target: T21, dopamine transporter (h) (antagonist radioligand) (Homo sapiens, UniProt Q01959); assay: CEREP Diversity Panel; type: binding
T21 construct: purchased CEREP (Eurofins Cerep)
Procedure: as §1

[22] = target: T22, CRF1 (h) (agonist radioligand) (Homo sapiens, UniProt P34998); assay: CEREP Diversity Panel; type: binding
T22 construct: purchased CEREP (Eurofins Cerep)
Procedure: as §1

[23] = target: T23, TRH1 (h) (agonist radioligand) (Homo sapiens, UniProt P34981); assay: CEREP Diversity Panel; type: binding
T23 construct: purchased CEREP (Eurofins Cerep)
Procedure: as §1

[24] = target: T24, ETB (h) (agonist radioligand) (Homo sapiens, UniProt P24530); assay: CEREP Diversity Panel; type: binding
T24 construct: purchased CEREP (Eurofins Cerep)
Procedure: as §1

[25] = target: T25, N neuronal a 4b 2 (h) (agonist radioligand) (Homo sapiens, UniProt P17787+P43681); assay: CEREP Diversity Panel; type: binding
T25 construct: purchased CEREP (Eurofins Cerep)
Procedure: as §1

[26] = target: T26, A3 (h) (agonist radioligand) (Homo sapiens, UniProt P0DMS8); assay: CEREP Diversity Panel; type: binding
T26 construct: purchased CEREP (Eurofins Cerep)
Procedure: as §1

[27] = target: T27, D3 (h) (antagonist radioligand) (Homo sapiens, UniProt P35462); assay: CEREP Diversity Panel; type: binding
T27 construct: purchased CEREP (Eurofins Cerep)
Procedure: as §1

[28] = tested on: THP-1 cells; assay: FACS based CD11B induction assay in THP-1; type: cell-based; conditions: Homo sapiens; THP-1, 96 hr; read-out: EC50 induction of differentiation marker CD11B
Procedure: Human leukemic THP1 (ACC-16) cells ([…]) were obtained from DMSZ and maintained in RPMI 1640 medium (Cat# R0883; Sigma Aldrich) supplemented with 10 % heat inactivated fetal bovine serum (FBS; Cat# F9665; Sigma-Aldrich) and 2 mM Glutamine (Cat# X0550 Biowest).
THP-1 cells are acute leukemia cells with blast phenotype that can be induced to differentiate into a monocyte/macrophage phenotype by cell penetrant KDM1A inhibitors. Differentiation can be followed by measurement of induction of differentiation surface markers like CD11B. Cells were treated for 96 hr with KDM1A inhibitors. Fluorescent assisted cell sorting (FACS) analysis of CD11B expression was performed on 1.5 x 10^5 THP-1 cells (obtained from German Collection of microorganism and Cell Cultures; ACC-16) using a phycoerythrin-conjugated human CD11B-specific mouse monoclonal antibody (eBiosciences, #12-0118) at dilution 1:5 on a cytomics FC500 (Beckman Coulter) with FlowJo software. The mouse IgG1 K isotype (eBiosciences, #12-4714) was used as a control antibody. Concentration-response curves were determined out by assaying inhibitors at concentrations ranging between 0.32 and 200 nM.

T11 sequence (P25116 22-425): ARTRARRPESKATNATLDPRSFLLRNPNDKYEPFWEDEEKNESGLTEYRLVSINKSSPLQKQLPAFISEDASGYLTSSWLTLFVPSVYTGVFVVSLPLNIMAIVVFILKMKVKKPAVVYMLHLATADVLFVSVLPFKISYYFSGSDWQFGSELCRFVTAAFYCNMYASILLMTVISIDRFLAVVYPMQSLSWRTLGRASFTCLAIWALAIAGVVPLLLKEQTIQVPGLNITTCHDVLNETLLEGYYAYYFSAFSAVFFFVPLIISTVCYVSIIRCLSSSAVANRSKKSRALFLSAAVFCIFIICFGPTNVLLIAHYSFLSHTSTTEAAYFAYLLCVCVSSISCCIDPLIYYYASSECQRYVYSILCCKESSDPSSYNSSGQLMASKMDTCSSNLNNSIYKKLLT
T26 sequence (P0DMS8 whole entry): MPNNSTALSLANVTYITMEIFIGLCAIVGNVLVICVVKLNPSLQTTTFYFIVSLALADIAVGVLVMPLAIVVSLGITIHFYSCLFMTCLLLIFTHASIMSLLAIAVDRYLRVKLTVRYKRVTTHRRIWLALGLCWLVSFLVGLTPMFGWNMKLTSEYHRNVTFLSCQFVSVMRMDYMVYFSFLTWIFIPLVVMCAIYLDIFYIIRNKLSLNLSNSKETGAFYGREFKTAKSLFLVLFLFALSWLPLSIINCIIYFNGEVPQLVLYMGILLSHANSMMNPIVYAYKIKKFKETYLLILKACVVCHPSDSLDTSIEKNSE
T14 sequence (P50052 whole entry): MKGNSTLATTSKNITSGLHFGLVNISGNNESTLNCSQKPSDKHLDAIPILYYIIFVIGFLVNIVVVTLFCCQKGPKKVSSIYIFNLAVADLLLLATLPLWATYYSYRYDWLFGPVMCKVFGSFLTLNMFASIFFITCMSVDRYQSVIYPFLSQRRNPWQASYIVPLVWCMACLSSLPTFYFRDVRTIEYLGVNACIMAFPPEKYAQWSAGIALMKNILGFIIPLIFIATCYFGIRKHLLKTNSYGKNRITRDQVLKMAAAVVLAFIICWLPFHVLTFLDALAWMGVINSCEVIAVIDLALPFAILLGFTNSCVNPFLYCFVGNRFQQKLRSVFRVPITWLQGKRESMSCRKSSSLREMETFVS
T6 sequence (P14416 1-414 isoform P14416-2): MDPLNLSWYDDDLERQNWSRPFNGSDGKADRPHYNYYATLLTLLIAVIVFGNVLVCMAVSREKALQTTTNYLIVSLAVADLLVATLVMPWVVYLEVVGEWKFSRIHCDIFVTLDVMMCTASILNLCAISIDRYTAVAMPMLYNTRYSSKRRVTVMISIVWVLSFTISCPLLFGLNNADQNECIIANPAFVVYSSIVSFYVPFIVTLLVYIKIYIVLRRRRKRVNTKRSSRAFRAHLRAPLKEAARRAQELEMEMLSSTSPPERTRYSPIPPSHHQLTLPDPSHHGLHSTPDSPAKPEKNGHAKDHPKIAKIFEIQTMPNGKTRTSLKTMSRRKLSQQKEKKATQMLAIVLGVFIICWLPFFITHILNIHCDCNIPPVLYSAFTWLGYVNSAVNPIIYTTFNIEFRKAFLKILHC
T4 sequence (Q9Y271 whole entry): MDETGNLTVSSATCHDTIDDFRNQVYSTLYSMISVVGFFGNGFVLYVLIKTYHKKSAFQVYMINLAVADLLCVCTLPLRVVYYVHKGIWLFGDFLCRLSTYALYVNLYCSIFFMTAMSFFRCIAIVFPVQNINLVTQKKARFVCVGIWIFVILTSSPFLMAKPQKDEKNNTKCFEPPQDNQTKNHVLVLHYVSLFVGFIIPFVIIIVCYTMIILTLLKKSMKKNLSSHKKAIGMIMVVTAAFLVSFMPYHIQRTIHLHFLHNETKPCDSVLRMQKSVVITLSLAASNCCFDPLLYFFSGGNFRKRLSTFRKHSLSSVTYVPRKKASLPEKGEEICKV
T15 sequence (P29371 whole entry): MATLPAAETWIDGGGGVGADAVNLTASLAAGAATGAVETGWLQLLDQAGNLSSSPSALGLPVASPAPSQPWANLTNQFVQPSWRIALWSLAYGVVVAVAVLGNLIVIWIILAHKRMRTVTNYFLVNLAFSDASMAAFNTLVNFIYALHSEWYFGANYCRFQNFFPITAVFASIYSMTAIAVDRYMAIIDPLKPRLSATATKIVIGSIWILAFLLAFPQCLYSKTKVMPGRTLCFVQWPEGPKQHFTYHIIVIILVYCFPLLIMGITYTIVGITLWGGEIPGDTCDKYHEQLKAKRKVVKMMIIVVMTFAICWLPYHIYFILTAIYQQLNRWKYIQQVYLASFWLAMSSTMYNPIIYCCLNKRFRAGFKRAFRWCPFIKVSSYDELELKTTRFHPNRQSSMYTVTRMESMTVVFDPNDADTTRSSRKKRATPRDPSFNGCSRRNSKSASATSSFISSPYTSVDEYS
T10 sequence (P08588 whole entry): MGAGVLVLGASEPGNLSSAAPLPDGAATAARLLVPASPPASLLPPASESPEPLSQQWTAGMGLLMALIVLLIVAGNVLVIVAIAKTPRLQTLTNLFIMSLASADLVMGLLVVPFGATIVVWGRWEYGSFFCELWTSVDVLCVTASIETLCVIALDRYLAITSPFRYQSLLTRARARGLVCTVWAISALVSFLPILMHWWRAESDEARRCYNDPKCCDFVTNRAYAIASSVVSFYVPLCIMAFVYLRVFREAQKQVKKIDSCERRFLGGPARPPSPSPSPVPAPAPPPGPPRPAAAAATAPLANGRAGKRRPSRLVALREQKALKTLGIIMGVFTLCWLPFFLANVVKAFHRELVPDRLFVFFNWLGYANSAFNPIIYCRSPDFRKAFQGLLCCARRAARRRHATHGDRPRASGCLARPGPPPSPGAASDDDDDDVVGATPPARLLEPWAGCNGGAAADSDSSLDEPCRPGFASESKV
T16 sequence (P37231 whole entry): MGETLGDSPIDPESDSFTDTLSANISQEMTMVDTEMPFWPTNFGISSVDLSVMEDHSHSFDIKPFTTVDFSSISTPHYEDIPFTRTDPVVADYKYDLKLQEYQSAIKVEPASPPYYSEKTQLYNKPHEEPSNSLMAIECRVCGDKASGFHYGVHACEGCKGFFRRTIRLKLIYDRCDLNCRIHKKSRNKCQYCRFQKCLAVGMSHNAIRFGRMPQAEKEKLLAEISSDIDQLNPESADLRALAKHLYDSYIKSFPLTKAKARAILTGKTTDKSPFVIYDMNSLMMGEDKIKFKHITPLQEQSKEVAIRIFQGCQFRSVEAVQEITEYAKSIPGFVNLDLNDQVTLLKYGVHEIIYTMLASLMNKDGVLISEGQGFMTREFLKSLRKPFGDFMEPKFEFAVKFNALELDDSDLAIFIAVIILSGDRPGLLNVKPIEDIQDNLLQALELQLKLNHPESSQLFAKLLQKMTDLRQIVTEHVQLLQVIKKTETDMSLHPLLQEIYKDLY
T8 sequence (P25101 21-427): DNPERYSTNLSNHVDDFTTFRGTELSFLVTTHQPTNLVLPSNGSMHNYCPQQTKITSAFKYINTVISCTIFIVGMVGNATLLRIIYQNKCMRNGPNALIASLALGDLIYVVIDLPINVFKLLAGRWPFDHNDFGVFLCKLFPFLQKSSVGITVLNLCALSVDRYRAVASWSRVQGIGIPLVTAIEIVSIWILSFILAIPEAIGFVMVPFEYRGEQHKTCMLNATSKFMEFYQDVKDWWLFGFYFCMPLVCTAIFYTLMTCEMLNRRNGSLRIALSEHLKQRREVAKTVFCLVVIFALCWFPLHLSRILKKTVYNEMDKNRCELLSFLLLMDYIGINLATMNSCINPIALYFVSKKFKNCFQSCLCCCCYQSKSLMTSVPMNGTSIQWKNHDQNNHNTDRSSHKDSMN
T7 sequence (P31645 whole entry): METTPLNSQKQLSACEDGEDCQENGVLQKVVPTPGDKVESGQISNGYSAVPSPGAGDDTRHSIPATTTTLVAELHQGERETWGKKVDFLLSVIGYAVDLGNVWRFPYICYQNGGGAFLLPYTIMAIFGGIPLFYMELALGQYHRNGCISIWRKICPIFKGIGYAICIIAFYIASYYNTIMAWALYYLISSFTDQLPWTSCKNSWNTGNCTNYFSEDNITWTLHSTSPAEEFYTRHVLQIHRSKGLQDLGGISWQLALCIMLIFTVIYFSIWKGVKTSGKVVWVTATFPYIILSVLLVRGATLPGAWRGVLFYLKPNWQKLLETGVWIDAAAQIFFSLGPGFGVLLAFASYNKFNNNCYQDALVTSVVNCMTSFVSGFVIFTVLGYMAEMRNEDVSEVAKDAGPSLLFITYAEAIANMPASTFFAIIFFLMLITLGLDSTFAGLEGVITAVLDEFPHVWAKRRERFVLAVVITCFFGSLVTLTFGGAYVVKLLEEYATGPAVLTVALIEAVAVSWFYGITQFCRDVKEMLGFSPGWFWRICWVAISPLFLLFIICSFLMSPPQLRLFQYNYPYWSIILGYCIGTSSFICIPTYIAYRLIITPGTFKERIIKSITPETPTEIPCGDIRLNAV
T12 sequence (Q9Y5N1 whole entry): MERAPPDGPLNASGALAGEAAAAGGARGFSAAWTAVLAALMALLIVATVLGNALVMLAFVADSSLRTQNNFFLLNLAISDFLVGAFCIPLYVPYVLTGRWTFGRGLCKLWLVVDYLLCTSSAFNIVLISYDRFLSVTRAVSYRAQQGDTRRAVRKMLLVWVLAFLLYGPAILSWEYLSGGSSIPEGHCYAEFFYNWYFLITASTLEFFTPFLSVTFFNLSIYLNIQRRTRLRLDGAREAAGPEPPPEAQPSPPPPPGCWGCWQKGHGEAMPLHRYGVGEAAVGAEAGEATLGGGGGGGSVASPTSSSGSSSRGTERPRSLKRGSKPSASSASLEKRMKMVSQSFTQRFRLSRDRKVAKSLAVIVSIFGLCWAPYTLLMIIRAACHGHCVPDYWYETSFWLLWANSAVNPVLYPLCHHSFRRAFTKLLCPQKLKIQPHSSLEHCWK

Nc1nnc(CN[C@@H]2C[C@H]2c2ccc(OCc3ccccc3)cc2)o1 [ORY-2001, vafidemstat]
inhibition at 10 µM [1]: -9% | inhibition at 10 µM [2]: 31% | inhibition at 10 µM [3]: -8% | inhibition at 10 µM [4]: 4% | inhibition at 10 µM [5]: 1% | inhibition at 10 µM [6]: -8% | inhibition at 10 µM [7]: 2% | inhibition at 10 µM [8]: -23% | inhibition at 10 µM [9]: -3% | inhibition at 10 µM [10]: 7% | inhibition at 10 µM [11]: -2% | inhibition at 10 µM [12]: -1% | inhibition at 10 µM [13]: 9% | inhibition at 10 µM [14]: -6% | inhibition at 10 µM [15]: 2% | inhibition at 10 µM [16]: 4% | inhibition at 10 µM [17]: 3% | inhibition at 10 µM [18]: -15% | inhibition at 10 µM [19]: -12% | inhibition at 10 µM [20]: -5% | inhibition at 10 µM [21]: 33% | inhibition at 10 µM [22]: 18% | inhibition at 10 µM [23]: 3% | inhibition at 10 µM [24]: -8% | inhibition at 10 µM [25]: -3% | inhibition at 10 µM [26]: -4% | inhibition at 10 µM [27]: 8% | pEC50 [28]: 7.68

From article PMC7259601 (PLoS ONE, 2020)
